Data reported in patent EP2368549A1, “Treating hand-foot syndrome and related pathologies using clonidine or its derivatives” (BioAlliance Pharma, priority 2010, dated 2011).

Columns and labels:
[1] = clinical trials of breast or colorectal cancer; cited from earlier work
TNFα = settings: culture supernatant, 24h after substance P addition; clonidine treatment before and during substance P stimulation (topical formulations 0.05%-1% on the epidermis)
Source text: (§1) Human biopsy samples of clinically healthy human skin were obtained from patients undergoing plastic surgery. All patients gave their written informed consent before the surgery has carried out.
(§2) Skin biopsies were cut into 1 cm2 full thickness pieces and washed three times with antibiotics. Subcutaneous fat and lower dermis were mechanically removed. Skin fragments were transferred onto permeable polycarbonate membrane transwells (12 mm diameter, 12 µm pore size) in a well of 12 well plate (as previously described Boisnic S. et al., [1-3]) containing 700µl of defined medium (DMEM, antibiotics, hormones, pituitary extract, FCS). Explants were maintained at the interface between air and medium with the epithelium uppermost and the dermis exposed to the media by diffusion through the porous membrane.
(§3) Cohesion between skin fragments and inserts was obtained with a polyvinylsiloxane addition type silicone elastomer seal (coltène® president) in such a way that no skin retraction or lateral passage of the product towards the dermis was possible.
(§4) The culture was set up for 36 hours in a humidified atmosphere containing 5% CO2 at 37°C, and medium was daily change, culture supernatants were frozen at -80°C until further analysis.
The stimulation of the experimental oral human skin inflammatory process was done by the neuropeptide substance P (SP) [1]. […]

[2] = system: human skin organotypic culture; settings: histology of papillary and upper reticular dermis, 24h after substance P addition; clonidine treatment before and during substance P stimulation
Source text: as §1, §2, §3, §4
At the end of culture all human skin fragments were formalin fixed and paraffin embedded. […]

SMILES	overall incidence of HFS [1]	patients reporting a severe form (grade 3) of HFS [1] [%]	proinflammatory cytokines TNFα level (TNFα)	skin oedema [2]	vasodilatation [2]
CCCCCOC(=O)Nc1nc(=O)n([C@@H]2O[C@H](C)[C@@H](O)[C@H]2O)cc1F [capecitabine, N4-pentyloxycarbonyl-5'-deoxy-5-fluorocytidine]	around 50%	17	–	–	–
Clc1cccc(Cl)c1NC1=NCCN1 [clonidine, N-(2,6-dichlorophenyl)-4,5-dihydro-1H-imidazol-2-amine]	–	–	decrease	decrease	decrease
